Common to all, as to assay type: biochemical
One assay concerns the target SIK1 (Homo sapiens (Human), UniProt P57059). Briefly: Phosphorylation assay SIK1 (RapidFire mass spectrometry). The following applies: 5 nM SIK1, CHK-peptide, ATP, 30 min pre-incubation, 45 min incubation; read-out: SIK1 RF IC50. The protocol:
(§1) In the presence of SIK2 (resp. SIK1 or SIK3) and ATP the CHK-peptide ([…] with C-terminal arginine amide modification) were phosphorylated at one of the four feasible serine's. Only one phosphorylation is observed under the assay conditions. 60 nl of each compound dilution series (12 point; dilution factor 3, generally 30 μM to 170 pM) in DMSO were transferred by acoustic dispensing to the assay plate and 30 minutes pre-incubated (ambient temperature) after the addition of 5 μl SIK1 (5 nM) resp. 5 μl SIK2 (0.5 nM) or 7 μl SIK3 (1.5 nM) in assay-buffer (12.5 mM HEPES (pH 7.0), 10 mM magnesium acetate, 0.005% BSA). 10 μM CHK-peptide solution and 5 μl of 100 μM ATP for SIK1 & SIK2 resp. 3 μl for SIK3 in assay-buffer were added and incubated ambient for 45 minutes. 40 μl of 0.125% formic acid in water were added to quench the reaction. RapidFire (RF) Mass Spectrometry was utilized for data generation as described below. The multiple charged species (3-5 charges) for the phosphorylated and non-phosphorylated form measured by MRM (Multiple Reaction Monitoring; API5000 or 6500+) or EIC (Extracted Ion Current; QToF) were summed up and the ratio calculated (sum phosphorylated species/sum all species) for data evaluation. Normalization was performed by Genedata software based on the non-inhibition control DMSO and the commercially available SIK inhibitor @1 μM YKL-05-099 (CAS number 1936529-65-5). The results of the assay are expressed in half-maximal inhibitory concentrations (IC50s) and are summarized below in Table 1.
(§2) Samples were aspirated by vacuum for max. 600 ms and loaded to C4-cartridge (Agilent; #G9203A) for 3000 ms@1.5 ml/min with 0.1% formic acid in water. Afterwards samples were transferred to the API5000 (API6500+) or QToF mass spectrometer for 4000 ms@1.25 ml/min with 90% acetonitrile; 10% water; 0.007% TFA; 0.093 formic acid. The cartridge was reconditioned for additional 500 ms with 0.1% formic acid in water.
(§3) All MS analyses using the following MS-setup in MRM mode: Electrospray positive; Ion Spray Voltage: 4000V; Temperature: 550° C.; Collision Gas: 5; Curtain Gas: 15; Gas 1: 40; Gas 2: 42; EP: 10. DP=declustering potential; CE=collision energy; CXP=cell exit potential.
(§4) All MS analyses using the following MS-setup in Mode MS: Dual AJS Electrospray positive; VCap: 3000V; Drying & Sheath gas: 340° C.@81/min; Nebulizer: 60 psig; Nozzle Voltage: 2000V; Fragmentor: 130V; Skimmer: 35V; Oct1 RF Vpp: 700V; Ref masses on@5spectra/s

In a further assay the target is SIK2 (Homo sapiens (Human), UniProt Q9H0K1). As to the kind of experiment: Phosphorylation assay SIK2 (RapidFire mass spectrometry). To be noted: 0.5 nM SIK2, CHK-peptide, ATP, 30 min pre-incubation, 45 min incubation; read-out: SIK2 RF IC50. The protocol: as §1, §2, §3, §4
The next assay deals with SIK3 (Homo sapiens (Human), UniProt Q9Y2K2). As to the kind of experiment: Phosphorylation assay SIK3 (RapidFire mass spectrometry). To be noted: 1.5 nM SIK3, CHK-peptide, ATP, 30 min pre-incubation, 45 min incubation; read-out: SIK3 RF IC50. The protocol:
as §1, §2, §3, §4

Chain of SIK2 (Q9H0K1 whole entry): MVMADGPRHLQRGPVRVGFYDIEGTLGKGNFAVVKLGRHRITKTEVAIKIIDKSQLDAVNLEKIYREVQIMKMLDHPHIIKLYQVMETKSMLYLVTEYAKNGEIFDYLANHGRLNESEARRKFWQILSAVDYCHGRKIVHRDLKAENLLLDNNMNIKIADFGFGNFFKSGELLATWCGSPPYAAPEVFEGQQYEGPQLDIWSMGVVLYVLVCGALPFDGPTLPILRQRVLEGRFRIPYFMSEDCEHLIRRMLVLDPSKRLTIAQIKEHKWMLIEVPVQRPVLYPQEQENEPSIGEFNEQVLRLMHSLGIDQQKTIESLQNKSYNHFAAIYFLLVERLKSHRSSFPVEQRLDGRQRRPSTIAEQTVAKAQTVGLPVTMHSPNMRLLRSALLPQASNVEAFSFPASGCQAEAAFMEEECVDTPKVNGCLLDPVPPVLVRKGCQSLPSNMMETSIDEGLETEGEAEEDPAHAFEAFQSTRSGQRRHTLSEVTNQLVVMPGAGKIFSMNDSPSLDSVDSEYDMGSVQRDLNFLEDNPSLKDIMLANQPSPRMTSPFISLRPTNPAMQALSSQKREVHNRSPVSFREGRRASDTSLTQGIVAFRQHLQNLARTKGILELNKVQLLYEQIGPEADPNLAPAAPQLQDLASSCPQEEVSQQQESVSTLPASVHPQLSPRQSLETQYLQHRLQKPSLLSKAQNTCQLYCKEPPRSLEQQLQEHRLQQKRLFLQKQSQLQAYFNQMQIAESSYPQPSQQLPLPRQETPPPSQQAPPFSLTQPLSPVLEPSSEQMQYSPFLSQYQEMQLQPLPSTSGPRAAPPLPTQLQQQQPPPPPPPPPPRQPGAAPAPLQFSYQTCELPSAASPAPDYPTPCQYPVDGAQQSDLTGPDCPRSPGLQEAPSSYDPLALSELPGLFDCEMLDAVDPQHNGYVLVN
Chain of SIK1 (P57059 whole entry): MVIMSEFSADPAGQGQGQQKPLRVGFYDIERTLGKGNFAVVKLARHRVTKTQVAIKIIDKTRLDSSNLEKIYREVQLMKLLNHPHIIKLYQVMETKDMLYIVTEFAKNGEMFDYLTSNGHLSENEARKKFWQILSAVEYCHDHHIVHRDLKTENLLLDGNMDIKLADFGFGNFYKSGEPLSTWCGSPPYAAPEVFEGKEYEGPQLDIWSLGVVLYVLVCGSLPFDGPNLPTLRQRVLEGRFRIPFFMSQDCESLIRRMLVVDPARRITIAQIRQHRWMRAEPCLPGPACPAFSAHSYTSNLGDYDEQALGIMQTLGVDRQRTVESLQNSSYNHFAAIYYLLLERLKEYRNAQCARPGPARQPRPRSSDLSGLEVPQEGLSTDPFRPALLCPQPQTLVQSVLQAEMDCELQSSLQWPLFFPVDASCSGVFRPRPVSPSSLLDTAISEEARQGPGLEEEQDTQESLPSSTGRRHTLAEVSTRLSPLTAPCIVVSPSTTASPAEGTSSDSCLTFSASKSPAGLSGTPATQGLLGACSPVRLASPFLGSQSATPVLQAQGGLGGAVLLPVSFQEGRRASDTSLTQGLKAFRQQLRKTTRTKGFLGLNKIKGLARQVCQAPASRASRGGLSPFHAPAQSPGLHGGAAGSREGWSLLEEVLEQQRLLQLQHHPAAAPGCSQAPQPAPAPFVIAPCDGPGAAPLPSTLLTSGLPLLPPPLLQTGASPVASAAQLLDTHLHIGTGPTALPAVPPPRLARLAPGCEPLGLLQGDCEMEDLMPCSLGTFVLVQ
Chain of SIK3 (Q9Y2K2 whole entry): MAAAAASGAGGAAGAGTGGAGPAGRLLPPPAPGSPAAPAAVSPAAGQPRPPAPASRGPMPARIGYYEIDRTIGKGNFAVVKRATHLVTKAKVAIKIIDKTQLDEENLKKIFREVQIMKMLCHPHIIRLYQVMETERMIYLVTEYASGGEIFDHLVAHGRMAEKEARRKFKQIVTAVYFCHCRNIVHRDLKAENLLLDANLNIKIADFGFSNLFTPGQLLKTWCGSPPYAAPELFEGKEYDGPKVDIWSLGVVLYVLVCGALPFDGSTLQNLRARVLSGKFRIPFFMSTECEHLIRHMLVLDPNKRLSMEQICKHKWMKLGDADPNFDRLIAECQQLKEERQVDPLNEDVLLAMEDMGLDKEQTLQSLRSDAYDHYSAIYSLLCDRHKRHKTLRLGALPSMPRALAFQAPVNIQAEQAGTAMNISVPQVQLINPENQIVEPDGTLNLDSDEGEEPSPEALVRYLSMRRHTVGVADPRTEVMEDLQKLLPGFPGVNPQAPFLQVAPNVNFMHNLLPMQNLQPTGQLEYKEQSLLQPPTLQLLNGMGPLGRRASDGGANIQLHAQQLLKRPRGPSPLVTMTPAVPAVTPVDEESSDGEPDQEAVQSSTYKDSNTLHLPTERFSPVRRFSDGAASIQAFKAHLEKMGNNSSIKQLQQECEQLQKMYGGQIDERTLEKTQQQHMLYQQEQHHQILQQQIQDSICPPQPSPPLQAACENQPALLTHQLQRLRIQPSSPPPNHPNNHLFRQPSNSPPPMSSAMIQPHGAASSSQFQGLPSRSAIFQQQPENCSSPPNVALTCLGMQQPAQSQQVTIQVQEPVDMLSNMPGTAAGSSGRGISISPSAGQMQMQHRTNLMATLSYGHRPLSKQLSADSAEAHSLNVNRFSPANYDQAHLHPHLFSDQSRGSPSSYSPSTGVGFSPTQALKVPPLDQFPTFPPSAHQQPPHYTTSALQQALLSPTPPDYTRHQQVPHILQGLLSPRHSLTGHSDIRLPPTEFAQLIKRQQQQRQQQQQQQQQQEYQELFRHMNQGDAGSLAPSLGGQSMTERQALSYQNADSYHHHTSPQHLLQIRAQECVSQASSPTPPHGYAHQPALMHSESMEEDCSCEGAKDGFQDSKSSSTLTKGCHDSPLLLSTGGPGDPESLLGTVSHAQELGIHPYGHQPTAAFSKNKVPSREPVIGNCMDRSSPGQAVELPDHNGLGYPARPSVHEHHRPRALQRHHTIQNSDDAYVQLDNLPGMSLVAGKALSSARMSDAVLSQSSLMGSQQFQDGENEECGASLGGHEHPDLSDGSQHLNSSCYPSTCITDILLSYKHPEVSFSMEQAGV

As a reminder, the IC50 is the concentration that gives 50% inhibition. Take `Cc1ccc(Nc2cnc3c(c2)ncn3-c2ccc(C(C)O)c(-n3nc(C#N)cc3C)c2)nn1` (stereo not drawn) [Example 1, 1-[2-(1-Hydroxyethyl)-5-[6-[(6-methylpyridazin-3-yl)amino]imidazo[4,5-b]pyridin-3-yl]phenyl]-5-methyl-pyrazole-3-carbonitrile]: the IC50 on SIK1 is 2800 nM; on SIK2, 16 nM; at SIK3, 2 nM.
`Cc1ccc(Nc2cnc3c(-c4ccc(C(C)O)c(-n5nc(C#N)cc5C)c4)cnn3c2)nn1` (stereo not drawn) [Example 2, 1-[2-(1-Hydroxyethyl)-5-[6-[(6-methylpyridazin-3-yl)amino]pyrazolo[1,5-a]pyrimidin-3-yl]phenyl]-5-methyl-pyrazole-3-carbonitrile]: the IC50 at SIK1 came to 616 nM; on SIK2, 1 nM; at SIK3, 0.3 nM.
Turning to `Cc1cc(C(F)F)nn1-c1cc(-n2cnc3cc(Nc4cccnn4)cnc32)ccc1C(C)O` (stereo not drawn) [Example 3, 1-[2-[3-(Difluoromethyl)-5-methyl-pyrazol-1-yl]-4-[6-(pyridazin-3-ylamino)imidazo[4,5-b]pyridin-3-yl]phenyl]ethanol], the values for the IC50 at SIK1, on SIK2 and on SIK3 were 16600 nM, 207 nM and 27 nM, respectively.
In the case of `COc1nc2c(cc1Nc1nnc(C)cc1C(=O)N(C)C)ncn2-c1ccc(C#N)c(-n2nc(OC(F)F)cc2C)c1` [Example 4, 3-[[3-[4-cyano-3-[3-(difluoromethoxy)-5-methyl-pyrazol-1-yl]phenyl]-5-methoxy-imidazo[4,5-b]pyridin-6-yl]amino]-N,N,6-trimethyl-pyridazine-4-carboxamide], the values for the IC50 at SIK1, on SIK2 and at SIK3 were 18600 nM, 7 nM and 207 nM, respectively.
The like results for `Cc1ccc(Oc2cnc3c(-c4ccc(C(C)O)c(-n5nc(C#N)cc5C)c4)cnn3c2)nn1` (stereo not drawn) [Example 5, 1-[2-(1-Hydroxyethyl)-5-[6-(6-methylpyridazin-3-yl)oxypyrazolo[1,5-a]pyrimidin-3-yl]phenyl]-5-methylpyrazole-3-carbonitrile] were, in that order, 14600 nM, 106 nM and 12 nM.
Turning to `Cc1cc(C(=O)N(C)C)c(Nc2cnc3c(c2)ncn3-c2ccc(C#N)c(-n3nc(OC(F)F)cc3C)c2)nn1` [Example 6, 3-[[3-[4-Cyano-3-[3-(difluoromethoxy)-5-methyl-pyrazol-1-yl]phenyl]imidazo[4,5-b]pyridin-6-yl]amino]-N,N,6-trimethyl-pyridazine-4-carboxamide], the results for the IC50 at SIK1, at SIK2 and on SIK3 were no less than 30000 nM, 152 nM and 366 nM, respectively.
As for `Cc1ccc(Nc2cnc3c(c2)ncn3-c2cc(F)c(C(C)O)c(-n3nc(C#N)cc3C)c2)nn1` (stereo not drawn) [Example 7, 1-[3-Fluoro-2-(1-hydroxyethyl)-5-[6-[(6-methylpyridazin-3-yl)amino]imidazo[4,5-b]pyridin-3-yl]phenyl]-5-methyl-pyrazole-3-carbonitrile], the IC50 at SIK1 was 6010 nM; at SIK2 it was 21 nM; on SIK3, 6 nM.
As for `Cc1ccc(Nc2cnc3c(-c4ccc(C(C)O)c(-n5nc(C(F)F)cc5C)c4)cnn3c2)nn1` (stereo not drawn) [Example 8, 1-[2-[3-(Difluoromethyl)-5-methyl-pyrazol-1-yl]-4-[6-[(6-methylpyridazin-3-yl)amino]pyrazolo[1,5-a]pyrimidin-3-yl]phenyl]ethanol], the IC50 on SIK1 was no less than 30000 nM; at SIK2 it was 52 nM; at SIK3 it was 4 nM.

Source of the values: patent publication US20250127780A1, “IMIDAZO[4,5-B]PYRIDINE AND PYRAZOLO[1,5-A]PYRIMIDINE DERIVATIVES AS SIK MODULATORS FOR THE TREATMENT OF RHEUMATOID ARTHRITIS” (Hoffmann-La Roche Inc., priority 2022, published 2025).
